According to patent US6852316B2, “Cancer treatment” (Queen Mary & Westfield College, priority 1998, dated 2005):
“Also recorded” adds a separate entry of the source.

Legend:
Type in all cases: cell-based
breast cancer cells [1] = test: Invasion chamber assay, IGF-I stimulated breast cancer cell invasion
Description: The effect of angiotensin-II (A-II) in inhibiting growth factor-induced stimulated cancer cell invasiveness was studied as a model system and the results are shown in FIG. 3. The study was carried out using an invasion chamber in which two compartments are separated by a perforated membrane coated in matrix protein. A chemoattractant, IGF-I, was added to the medium on one side of the chamber, and the breast cancer cells to the other. Invasiveness was measured by counting the cells that migrated from one chamber to the other.

β1 integrin [2] = test: 125I labelling and immunoprecipitation of β1 integrin, SDS-PAGE autoradiography; details: MCF-7 cells, A-II 10^−5 M for 24 hours, compared to control, non-reducing conditions
Description: Immunoprecipitation is a technique for the detection and quantification of target protein. It comprises the five steps of radiolabelling of the cell-membrane proteins, cell lysis, formation of the specific antibody-antigen complexes, extraction of these complexes and analysis of the radiolabelled target proteins contained within the immunoprecipitation. All experiments were performed in triplicate.
For immunoprecipitation experiments, MCF-7 cells were cultured in 5% FBS-supplemented MEM. When sub-confluent, the medium was removed and the cells washed with phosphate buffered saline (PBS) (0.15 M sodium chloride, 20 mM sodium monophosphate; pH 7.5). The medium was then replaced with serum-free MEM and treated with angiotensin-II (A-II) at a concentration of 10^−5 M for 24 hours. Control cells were cultured in serum-free medium only. On this occasion the cells were harvested not by trypsinisation, which may impair the immunoprecipitation process, but with a cell scraper. They were then gently passed repeatedly through a narrow pipette, to break down cell clusters, and centrifuged at 900 rpm per ten minutes.
The cell pellets as above were taken up in PBS and counted with the haemocytometer. Trypan blue exclusion was employed so that 1-2×10^6 viable cells were taken up in each 1 ml aliquot. […]

β1 integrin [3] = test: Immunocytochemistry for β1 integrin expression in MCF-7 cancer cell line; details: MCF-7 cells treated with A-II at 10^−5 M, versus control
Description: Immunocytochemical straining of both receptors was based on the standard streptavidinbiotin peroxidase method. For the optimal working concentration of both antibodies serial dilutions were performed. The AT1R antibody 6313/G2 in the range 1:1 to 1:500 and for anti-β1 integrin between 1:10 and 1:500.
For integrin B1 receptor straining both with and without A-II pre-treatment, harvested cells were plated onto sterile microscope slides within slide culture wells (Heraeus Instruments GmbH, Osterode am Harz, Germany) and incubated with fresh BCM. When sub-confluent the medium was replaced with serum-free BCM to which was added Angiotensin-II (A-II), or not in the case of controls which were subjected to otherwise identical preparation and straining. Angiotensin-II (A-II) was added in the concentration range 10^−5M to 10^−9M and incubated for 24 hours. The medium was then removed, the slides rinsed with PBS, air dried and stored frozen as above.
The slides, prepared as above, were removed from frozen storage and placed directly into 100% acetone (British Drug Houses) at −10° C. for 10 minutes. They were then air-dried for 10 minutes and rehydrated in 0.05 M Tris-buffered saline (TBS)(0.05 M sodium chloride, 0.05 M Trizma base, 36 mM hydrochloric acid, pH 7.6) twice for 3 minutes each. […]

breast cancer cells [4] = test: Breast cancer cell growth in culture, light microscopy

## Asp-Arg-Val-Tyr-Ile-His-Pro-Phe (DRVYIHPF; Sequence Source Uncertain) [angiotensin-II]
Breast cancer cells [1]; A-II pre-treatment versus control, IGF-I chemoattractant
  reduction in mean invasion: tenfold reduction
Breast cancer cells [1]; cells treated with A-II prior to invasion assay, chemoattractant IGF-I, control 1.58%, p=0.0011
  mean invasion: 0.15%
β1 integrin [2]
  β1 integrin expression (density of protein band on gel autoradiograph): relative increase in density; also recorded: increased expression
β1 integrin [3]
  β1 integrin staining (expression of β1 integrin protein): increase in staining
Breast cancer cells [4]; breast cancer cells in culture
  stimulation of cell growth: did not stimulate cell growth
Breast cancer cells [4]; grown in presence of angiotensin-II versus control cultures, light microscopy
  size of cell clusters in culture: larger clusters of cells
